Consider 15 molecules from patent publication US10544130B2, “Metallo-beta-lactamase inhibitors” (priority 2015, dated 2020).

Data set [1] has as its system Escherichia coli expressing NDM-1 (CLB30005, CLB30016). The data set is classed as cell-based. As to conditions: with imipenem 1 μg/ml; 95% inhibition of bacterial growth. The essentials:
(§1)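 Growth read by absorbance after 22–24 h at 35 °C in CAMHB, with test compound alone or combined with 1 μg/ml imipenem. Inocula came from overnight 35 °C blood-agar colonies, set to a defined OD600 and diluted 1:100. Value is the inhibitor concentration giving synergy.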

For data set [2], the system named is Klebsiella pneumoniae expressing VIM-1 (IHMA599644). The data set is classed as cell-based. As to conditions: with imipenem 1 μg/ml; 95% inhibition of bacterial growth. The essentials:
as §1

The subject of data set [3] is Serratia marcescens expressing IMP-1 (CL5741). Type of data set: cell-based. The following applies: with imipenem 1 μg/ml; 95% inhibition of bacterial growth. The gist of the method: as §1
The test system of data set [4] is Pseudomonas aeruginosa PAO1 MB9798 (efflux+, IMP-1). As to conditions: ratio MITC95 PA 9798/MITC95 PA 9799; imipenem at 2 μg/mL. The gist of the method: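 Isogenic PAO1 pair (efflux+ MB9798, efflux− MB9799, both IMP-1) tested by microbroth MIC with fixed imipenem and/or ceftazidime, usually at CLSI breakpoint, plus fixed class A/C inhibitor against AmpC. MBL inhibitor titrated; concentration restoring susceptibility recorded and fold difference between strains taken as efflux extent.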

The structures appear in SMILES notation.

Regarding `NCCNS(=O)(=O)c1ccc(-c2cccc3[nH]c(CN)nc23)c(-c2nn[nH]n2)c1S(N)(=O)=O` [Example 343], the “Escherichia coli (NDM-1) MITC95” value in data set [1] amounted to 0.7813 µM. Also, the “Klebsiella pneumoniae (VIM-1) MITC95” value in data set [2] is 0.7813 µM. The “Serratia marcescens (IMP-1) MITC95” value in data set [3] is 0.7813 µM. Besides, the Efflux ratio in data set [4] came to 1.00.

On to `CN([C@H]1CCNC1)S(=O)(=O)c1ccc(-c2cccc3[nH]c(N)nc23)c(-c2nn[nH]n2)c1S(N)(=O)=O` [Example 244, (S)-4-(2-amino-1H-benzo[d]imidazol-7-yl)-N1-methyl-N1-(pyrrolidin-3-yl)-3-(1H-tetrazol-5-yl)benzene-1,2-disulfonamide], for which the “Escherichia coli (NDM-1) MITC95” value in data set [1] was 0.7813 µM. Further, the “Klebsiella pneumoniae (VIM-1) MITC95” value in data set [2] was 1.563 µM. Further, the “Serratia marcescens (IMP-1) MITC95” value in data set [3] is 1.563 µM. In data set [4], the Efflux ratio is given as 2.00.

`NCCNS(=O)(=O)c1ccc(-c2cccc(SC[C@H](O)CN)c2)c(-c2nn[nH]n2)c1S(N)(=O)=O` [Example 356, (R)-3′-((3-amino-2-hydroxypropyl)thio)-N4-(2-aminoethyl)-2-(2H-tetrazol-5-yl)-[1,1′-biphenyl]-3,4-disulfonamide]: the “Escherichia coli (NDM-1) MITC95” value in data set [1] stood at 0.7813 µM. For the same molecule, in data set [2], the “Klebsiella pneumoniae (VIM-1) MITC95” value amounted to 0.7813 µM. The “Serratia marcescens (IMP-1) MITC95” value in data set [3] came out at 0.7813 µM. For the same molecule, in data set [4], the Efflux ratio is recorded as 2.00.

As for `NCCNS(=O)(=O)c1ccc(-c2cccc3[nH]c([C@@H](N)CN)nc23)c(-c2nn[nH]n2)c1S(N)(=O)=O` [Example 336, (S)—N1-(2-aminoethyl)-4-(2-(1,2-diaminoethyl)-1H-benzo[d]imidazol-4-yl)-3-(2H-tetrazol-5-yl)benzene-1,2-disulfonamide], the “Escherichia coli (NDM-1) MITC95” value in data set [1] was found to be 1.563 µM. For the same molecule, the “Klebsiella pneumoniae (VIM-1) MITC95” value in data set [2] amounted to 3.125 µM. Further, in data set [3], the “Serratia marcescens (IMP-1) MITC95” value turned out to be 3.125 µM. In addition, the Efflux ratio in data set [4] came out at 2.00.

`NCCNS(=O)(=O)c1ccc(-c2cccc(NC[C@@H](N)CO)c2)c(-c2nn[nH]n2)c1S(N)(=O)=O` [Example 349, (R)-3′-((2-amino-3-hydroxypropyl)amino)-N4-(2-aminoethyl)-2-(2H-tetrazol-5-yl)-[1,1′-biphenyl]-3,4-disulfonamide]: the “Escherichia coli (NDM-1) MITC95” value in data set [1] worked out at 1.563 µM. The “Klebsiella pneumoniae (VIM-1) MITC95” value in data set [2] was 1.563 µM. Besides, in data set [3], the “Serratia marcescens (IMP-1) MITC95” value worked out at 1.563 µM. Besides, in data set [4], the Efflux ratio was 2.00.

As to `NCCNS(=O)(=O)c1ccc(-c2cccc(NC[C@H](N)CO)c2)c(-c2nn[nH]n2)c1S(N)(=O)=O` [Example 350, (S)-3′-((2-amino-3-hydroxypropyl)amino)-N4-(2-aminoethyl)-2-(2H-tetrazol-5-yl)-[1,1′-biphenyl]-3,4-disulfonamide], the “Escherichia coli (NDM-1) MITC95” value in data set [1] was 0.7813 µM. In addition, the “Klebsiella pneumoniae (VIM-1) MITC95” value in data set [2] was found to be 0.7813 µM. The “Serratia marcescens (IMP-1) MITC95” value in data set [3] is 0.7813 µM. Further, the Efflux ratio in data set [4] amounted to 1.00.

Take `Nc1nc2c(-c3ccc(S(=O)(=O)N[C@H]4CCNC4)c(S(N)(=O)=O)c3-c3nn[nH]n3)cc(F)cc2[nH]1` [Example 399, (S)-4-(2-amino-6-fluoro-1H-benzo[d]imidazol-4-yl)-N^1-(pyrrolidin-3-yl)-3-(2H-tetrazol-5-yl)benzene-1,2-disulfonamide]: in data set [1], the “Escherichia coli (NDM-1) MITC95” value was 0.7813 µM. In addition, in data set [2], the “Klebsiella pneumoniae (VIM-1) MITC95” value turned out to be 1.563 µM. Moreover, the “Serratia marcescens (IMP-1) MITC95” value in data set [3] is 1.563 µM.

Regarding `NCC(=O)NC1C=C(c2ccc(S(=O)(=O)N[C@@H]3CCNC3)c(S(N)(=O)=O)c2-c2nn[nH]n2)CCC1` (stereo partly drawn) [Example 269, 2-Amino-N-(4′-(N—((R)-pyrrolidin-3-yl)sulfamoyl)-3′-sulfamoyl-2′-(2H-tetrazol-5-yl)-3,4,5,6-tetrahydro-[1,1′-biphenyl]-3-yl)acetamide], the “Escherichia coli (NDM-1) MITC95” value in data set [1] was found to be 1.563 µM. For the same molecule, in data set [2], the “Klebsiella pneumoniae (VIM-1) MITC95” value worked out at 3.125 µM. Further, the “Serratia marcescens (IMP-1) MITC95” value in data set [3] amounted to 1.563 µM.

`NC[C@@H](O)CNS(=O)(=O)c1ccc(-c2ccnc(N)c2)c(-c2nn[nH]n2)c1S(N)(=O)=O` [Example 419, (R)-N^1-(3-amino-2-hydroxypropyl)-4-(2-aminopyridin-4-yl)-3-(2H-tetrazol-5-yl)benzene-1,2-disulfonamide]: the “Escherichia coli (NDM-1) MITC95” value in data set [1] was found to be 0.1953 µM. Besides, the “Klebsiella pneumoniae (VIM-1) MITC95” value in data set [2] stood at 1.563 µM. For the same molecule, the “Serratia marcescens (IMP-1) MITC95” value in data set [3] stood at 0.7813 µM.

Take `NCC(CN)NS(=O)(=O)c1ccc(-c2cccc(-c3cnc(N)[nH]3)n2)c(-c2nnn[nH]2)c1S(N)(=O)=O` [Example 438, 4-(6-(2-Amino-1H-imidazol-5-yl)pyridin-2-yl)-N^1-(1,3-diaminopropan-2-yl)-3-(1H-tetrazol-5-yl)benzene-1,2-disulfonamide]: the “Escherichia coli (NDM-1) MITC95” value in data set [1] turned out to be 3.125 µM. The “Klebsiella pneumoniae (VIM-1) MITC95” value in data set [2] was determined as 3.125 µM. Also, the “Serratia marcescens (IMP-1) MITC95” value in data set [3] was 3.125 µM.

As to `NCCNc1cc(-c2ccc(S(=O)(=O)NCCN)c(S(N)(=O)=O)c2-c2nn[nH]n2)ccn1` [Example 456, N1-(2-Aminoethyl)-4-(2-((2-aminoethyl)amino)pyridin-4-yl)-3-(2H-tetrazol-5-yl)benzene-1,2-disulfonamide], in data set [1], the “Escherichia coli (NDM-1) MITC95” value was found to be 0.7813 µM. Further, the “Klebsiella pneumoniae (VIM-1) MITC95” value in data set [2] was found to be 1.563 µM. Further, the “Serratia marcescens (IMP-1) MITC95” value in data set [3] was determined as 0.7813 µM.

In the case of `NCCNS(=O)(=O)c1ccc(-c2cccc(C(=O)N[C@@H]3CNC[C@H]3O)c2)c(-c2nn[nH]n2)c1S(N)(=O)=O` [Example 344, 4′-(N-(2-aminoethyl)sulfamoyl)-N-((3R,4R)-4-hydroxypyrrolidin-3-yl)-3′-sulfamoyl-2′-(2H-tetrazol-5-yl)-[1,1′-biphenyl]-3-carboxamide], the “Escherichia coli (NDM-1) MITC95” value in data set [1] came out at 0.7813 µM. In addition, the “Klebsiella pneumoniae (VIM-1) MITC95” value in data set [2] was determined as 1.563 µM. In addition, the “Serratia marcescens (IMP-1) MITC95” value in data set [3] is 1.563 µM.

With `NCC(F)(F)c1nc2c(-c3ccc(S(=O)(=O)N[C@H]4CCNC4)c(S(N)(=O)=O)c3-c3nn[nH]n3)cccc2[nH]1` [Example 446, (S)-4-(2-(2-amino-1,1-difluoroethyl)-1H-benzo[d]imidazol-4-yl)-N1-(pyrrolidin-3-yl)-3-(2H-tetrazol-5-yl)benzene-1,2-disulfonamide], the “Escherichia coli (NDM-1) MITC95” value in data set [1] amounted to 1.563 µM. In addition, the “Klebsiella pneumoniae (VIM-1) MITC95” value in data set [2] was determined as 3.125 µM. Besides, in data set [3], the “Serratia marcescens (IMP-1) MITC95” value worked out at 3.125 µM.

On to `Nc1nc2c(-c3ccc(S(=O)(=O)N[C@@H]4CNC[C@H]4N)c(S(N)(=O)=O)c3-c3nn[nH]n3)cccc2[nH]1` [Example 424, 4-(2-amino-1H-benzo[d]imidazol-4-yl)-N^1-((3R,4R)-4-aminopyrrolidin-3-yl)-3-(2H-tetrazol-5-yl)benzene-1,2-disulfonamide], for which the “Escherichia coli (NDM-1) MITC95” value in data set [1] turned out to be 0.7813 µM. For the same molecule, the “Klebsiella pneumoniae (VIM-1) MITC95” value in data set [2] stood at 1.563 µM. Moreover, the “Serratia marcescens (IMP-1) MITC95” value in data set [3] was 1.563 µM.

In the case of `NC[C@H](N)CNS(=O)(=O)c1ccc(-c2cccc(-c3c[nH]c(N)n3)c2)c(-c2nn[nH]n2)c1S(N)(=O)=O` [Example 434, (S)-3′-(2-amino-1H-imidazol-4-yl)-N^4-(2,3-diaminopropyl)-2-(2H-tetrazol-5-yl)-[1,1′-biphenyl]-3,4-disulfonamide], the “Escherichia coli (NDM-1) MITC95” value in data set [1] amounted to 0.7813 µM. In addition, the “Klebsiella pneumoniae (VIM-1) MITC95” value in data set [2] is 1.563 µM. In addition, the “Serratia marcescens (IMP-1) MITC95” value in data set [3] stood at 1.563 µM.
